Test results: ChEMBL document CHEMBL2074254, “Substrate specificity of sinusoidal bile acid and organic anion uptake systems in rat and human liver” (Hepatology, 1997)

molecular target: T1, Hepatic sodium/bile acid cotransporter (Homo sapiens, UniProt Q14973); experiment: TP_TRANSPORTER: uptake in Xenopus laevis oocytes; assay type: functional, cell-based; details: oocyte
T1 sequence (Q14973 whole entry): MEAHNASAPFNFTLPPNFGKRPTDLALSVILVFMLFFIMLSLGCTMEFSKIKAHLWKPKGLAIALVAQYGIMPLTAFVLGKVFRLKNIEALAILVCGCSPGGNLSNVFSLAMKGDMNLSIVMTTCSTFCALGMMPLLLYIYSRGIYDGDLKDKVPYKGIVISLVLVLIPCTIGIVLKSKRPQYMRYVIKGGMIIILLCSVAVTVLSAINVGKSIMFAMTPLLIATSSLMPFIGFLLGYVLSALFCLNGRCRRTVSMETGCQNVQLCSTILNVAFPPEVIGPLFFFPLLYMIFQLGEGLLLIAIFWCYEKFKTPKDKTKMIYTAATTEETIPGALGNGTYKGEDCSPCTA

| Structure (SMILES) | Activity |
| --- | --- |
| C[C@H](CCC(=O)NCCS(=O)(=O)O)[C@H]1CC[C@H]2[C@@H]3[C@@H](O)C[C@@H]4C[C@H](O)CC[C@]4(C)[C@H]3CC[C@]12C [TAURURSODIOL] | substrate [+] |
| C[C@H](CCC(=O)NCC(=O)O)[C@H]1CC[C@H]2[C@@H]3[C@H](O)C[C@@H]4C[C@H](O)CC[C@]4(C)[C@H]3C[C@H](O)[C@]12C [GLYCOCHOLIC ACID] | substrate [+] |
| O=C1OC(c2ccc(O)c(S(=O)(=O)[O-])c2)(c2ccc(O)c(S(=O)(=O)[O-])c2)c2c(Br)c(Br)c(Br)c(Br)c21.[Na+].[Na+] [SULFOBROMOPHTHALEIN SODIUM] | substrate [+] |
| C[C@H](CCC(=O)NCCS(=O)(=O)O)[C@H]1CC[C@H]2[C@@H]3[C@H](O)C[C@@H]4C[C@H](O)CC[C@]4(C)[C@H]3CC[C@]12C [TAUROCHENODEOXYCHOLATE] | substrate [+] |
| C[C@]12CC[C@@H]3c4ccc(OS(=O)(=O)O)cc4CC[C@H]3[C@@H]1CCC2=O [ESTRONE SULFURIC ACID] | substrate [+] |
